Broadly, the remaining activity is the signal under treatment as a percentage of the control signal.

Like-named read-outs stand apart in the source and are kept apart here.

One assay addresses EPHB2 (Homo sapiens (Human), UniProt P29323). Briefly: KinomeScan. The class given is binding. The note with it: 1 uM.
In the next assay the target is JNK3 (Homo sapiens (Human), UniProt P53779). Briefly: Dundee profiling.
A further assay has as its target DYRK2 (Homo sapiens (Human), UniProt Q92630). Briefly: Dundee profiling.
The target of a further assay is S6K1 (Homo sapiens (Human), UniProt P23443). Briefly: Dundee profiling.
Setting [1] is: read-out: percent remaining enzymatic activity, I1, 1 μM.
[2] abbreviates: read-out: percent remaining enzymatic activity, I10.

Chain of DYRK2 (Q92630 whole entry, looked up, species assumed): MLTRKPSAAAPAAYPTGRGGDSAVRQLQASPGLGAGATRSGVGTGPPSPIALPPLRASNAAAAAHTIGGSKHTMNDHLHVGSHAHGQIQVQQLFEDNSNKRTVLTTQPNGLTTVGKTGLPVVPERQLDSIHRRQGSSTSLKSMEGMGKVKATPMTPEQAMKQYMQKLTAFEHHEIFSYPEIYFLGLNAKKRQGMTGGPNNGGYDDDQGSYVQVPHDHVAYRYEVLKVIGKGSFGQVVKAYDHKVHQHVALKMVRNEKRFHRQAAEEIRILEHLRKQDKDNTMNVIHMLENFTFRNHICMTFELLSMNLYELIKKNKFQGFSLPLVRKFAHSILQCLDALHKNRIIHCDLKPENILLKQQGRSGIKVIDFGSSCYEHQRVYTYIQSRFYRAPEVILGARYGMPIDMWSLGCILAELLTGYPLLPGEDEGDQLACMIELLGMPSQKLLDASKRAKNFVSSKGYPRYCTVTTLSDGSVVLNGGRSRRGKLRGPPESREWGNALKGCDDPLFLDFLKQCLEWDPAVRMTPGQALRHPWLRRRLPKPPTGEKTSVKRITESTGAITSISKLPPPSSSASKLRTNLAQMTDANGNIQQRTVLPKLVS
Chain of S6K1 (P23443 whole entry, looked up, species assumed): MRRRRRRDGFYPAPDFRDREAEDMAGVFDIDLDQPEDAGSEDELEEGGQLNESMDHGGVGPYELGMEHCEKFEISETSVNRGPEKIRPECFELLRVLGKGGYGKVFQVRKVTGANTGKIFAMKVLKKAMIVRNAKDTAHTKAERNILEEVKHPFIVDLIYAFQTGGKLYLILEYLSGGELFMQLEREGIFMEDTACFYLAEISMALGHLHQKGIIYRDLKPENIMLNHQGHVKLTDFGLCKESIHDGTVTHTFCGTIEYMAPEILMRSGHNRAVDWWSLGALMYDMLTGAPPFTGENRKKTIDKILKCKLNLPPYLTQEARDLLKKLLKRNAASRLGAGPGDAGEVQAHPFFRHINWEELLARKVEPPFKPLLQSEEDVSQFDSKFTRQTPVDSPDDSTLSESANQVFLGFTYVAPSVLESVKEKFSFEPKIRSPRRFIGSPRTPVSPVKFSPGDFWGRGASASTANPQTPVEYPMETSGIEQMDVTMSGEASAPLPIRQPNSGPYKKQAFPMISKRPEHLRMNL
Chain of JNK3 (P53779 whole entry, species assumed): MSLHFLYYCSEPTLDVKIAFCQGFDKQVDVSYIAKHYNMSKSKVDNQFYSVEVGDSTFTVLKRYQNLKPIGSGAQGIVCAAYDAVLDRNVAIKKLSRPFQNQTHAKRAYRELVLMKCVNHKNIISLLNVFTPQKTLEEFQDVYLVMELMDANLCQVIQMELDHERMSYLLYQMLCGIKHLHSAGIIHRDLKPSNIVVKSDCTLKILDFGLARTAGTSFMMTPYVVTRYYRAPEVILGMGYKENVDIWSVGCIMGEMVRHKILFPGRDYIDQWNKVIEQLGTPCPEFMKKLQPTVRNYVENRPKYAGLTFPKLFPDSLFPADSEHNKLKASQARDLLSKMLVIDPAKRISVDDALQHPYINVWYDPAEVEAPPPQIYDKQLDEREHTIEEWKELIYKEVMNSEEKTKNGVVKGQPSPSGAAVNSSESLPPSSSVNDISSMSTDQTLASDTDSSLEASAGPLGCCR
Chain of EPHB2 (P29323 19-1055): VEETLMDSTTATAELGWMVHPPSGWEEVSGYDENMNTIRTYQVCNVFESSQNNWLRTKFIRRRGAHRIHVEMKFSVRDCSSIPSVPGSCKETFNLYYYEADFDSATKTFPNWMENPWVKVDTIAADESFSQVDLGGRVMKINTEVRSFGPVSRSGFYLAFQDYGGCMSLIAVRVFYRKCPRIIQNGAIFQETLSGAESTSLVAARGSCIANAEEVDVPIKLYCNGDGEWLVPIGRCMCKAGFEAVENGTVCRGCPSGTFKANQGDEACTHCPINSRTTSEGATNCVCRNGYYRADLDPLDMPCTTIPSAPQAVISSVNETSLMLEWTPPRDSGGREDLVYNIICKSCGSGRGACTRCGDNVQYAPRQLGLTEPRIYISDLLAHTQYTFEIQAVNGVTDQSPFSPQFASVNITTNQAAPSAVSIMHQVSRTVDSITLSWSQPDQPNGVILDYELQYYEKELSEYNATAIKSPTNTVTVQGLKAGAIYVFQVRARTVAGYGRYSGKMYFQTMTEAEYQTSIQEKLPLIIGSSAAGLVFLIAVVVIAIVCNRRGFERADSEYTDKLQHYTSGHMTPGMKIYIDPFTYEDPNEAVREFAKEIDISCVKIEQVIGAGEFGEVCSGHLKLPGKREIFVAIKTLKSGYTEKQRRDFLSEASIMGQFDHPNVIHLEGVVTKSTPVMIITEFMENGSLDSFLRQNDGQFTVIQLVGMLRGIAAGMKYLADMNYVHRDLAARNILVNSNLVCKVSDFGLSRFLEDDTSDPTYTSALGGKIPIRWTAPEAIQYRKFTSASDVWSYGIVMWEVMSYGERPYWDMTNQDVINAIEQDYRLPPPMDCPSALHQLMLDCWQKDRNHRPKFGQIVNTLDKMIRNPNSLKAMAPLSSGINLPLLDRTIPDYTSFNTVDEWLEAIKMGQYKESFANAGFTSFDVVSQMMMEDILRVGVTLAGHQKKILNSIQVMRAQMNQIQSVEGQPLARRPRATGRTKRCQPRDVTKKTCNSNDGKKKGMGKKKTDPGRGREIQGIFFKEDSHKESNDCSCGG

At EPHB2, `CNc1nc(Nc2ccc(C(=O)N3CCOCC3)cc2OC)nc2[nH]cc(Cl)c12` [Compound 18, (4-((5-chloro-4-(methylamino)-7H-pyrrolo[2,3-d]pyrimidin-2-yl)amino)-3-methoxyphenyl)(morpholino)methanone] registered a KinomeScan value of 98. On JNK3 (I10), the “percent remaining enzymatic activity” value is 9%. Moreover, the remaining activity at 1 µM was found to be 29% at JNK3 (read-out: percent remaining enzymatic activity); 67% on DYRK2 (setting [1]); 18% at DYRK2 (setting [2]); 106% on S6K1 (setting [1]); 102% on S6K1 (setting [2]).
